This note sets out measurements from US20230416329A1, “A PEPTIDE WITH DISULFIDE BONDS AND INHIBITORY ACTIVITY AGAINST SERINE PROTEASES, DERIVED HYBRID PEPTIDES THEREOF, AND USES THEREOF” (INSTITUTE OF MATERIA MEDICA , CHINESE ACADEMY OF MEDICAL …, priority 2020, published 2023).

For orientation: Ki means a measure of affinity in units of concentration, obtained from inhibition or displacement. Broadly, the IC50 is the concentration that inhibits the measured activity by half.

SMILES strings stand for the structures. Like-named read-outs stand apart in the source and are kept apart here. Bridge positions count the residues as written; N and C are the ends. Square brackets hold non-standard residues; d marks the D form. Peptide text beside a SMILES is read from it. hCys = N[C@@H](CCS)C(=O)O; Nle = CCCC[C@H](N)C(=O)O

For the assay, the target named is T1, bovine trypsin (Bos taurus, UniProt P00760).
T1 sequence (P00760 24-246): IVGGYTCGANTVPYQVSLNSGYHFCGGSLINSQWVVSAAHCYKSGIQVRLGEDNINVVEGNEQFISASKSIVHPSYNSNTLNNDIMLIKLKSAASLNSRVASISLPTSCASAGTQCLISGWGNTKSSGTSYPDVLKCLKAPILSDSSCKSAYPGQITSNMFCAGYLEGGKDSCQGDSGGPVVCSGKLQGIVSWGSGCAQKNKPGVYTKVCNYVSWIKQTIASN
The experiment in a line: Trypsin inhibitory activity of peptides (BApNA hydrolysis, OD405; IC50, Ki, residual activity). The settings on record: for IC50: trypsin 50 nM, BApNA 1.22 mM, read-out: IC50. The format is biochemical. An outline of the steps:
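Trypsin (50 nM final) preincubated with peptides at 37 °C in 50 mM Tris-HCl pH 7.8, 20 mM CaCl2; BApNA added (1.22 mM final), 260 min at 37 °C, then OD405 read. Residual activity from enzyme-only and substrate-only controls; IC50 fitted and converted to Ki via Ki=IC50/(1+S/Km), Km measured separately for BApNA.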

The mark [1] stands for this setting: Ki=IC50/(1+S/Km), Km 0.33 mM, read-out: Ki.

Take `CC[C@H](C)[C@@H]1NC(=O)[C@@H]2CCCN2C(=O)[C@@H]2CCCN2C(=O)[C@H]([C@@H](C)CC)NC(=O)[C@H](CO)NC(=O)[C@H](CCCCN)NC(=O)[C@H]([C@@H](C)O)NC(=O)[C@H](C)NC(=O)[C@H](CCCNC(=N)N)NC(=O)CNC(=O)[C@@H](N)CSSC[C@@H](C(=O)N[C@@H](Cc2ccccc2)C(=O)N2CCC[C@H]2C(=O)N[C@@H](CC(=O)O)C(=O)O)NC1=O` [BT5] (H-CGRATKSIPPICFPD-OH; disulfide 1-12; N-terminus and C-terminus assumed): the “inhibitory activity against trypsin (in words)” value (“inhibitory activity” for short) was “enhanced trypsin inhibitory activity”. In addition, the Residual trypsin activity (peptide 0.00098 μM) worked out at 104.0 ± 5.2%. The Residual trypsin activity (peptide 0.002439 μM) is reported as 108.1 ± 2.6%. Under “peptide 0.00488 μM”, the Residual trypsin activity is listed as 103.7 ± 5.2%. Also, the Residual trypsin activity (peptide 0.0488 μM) is given as 83.1 ± 0.4%. Further, under “peptide 0.098 μM”, the Residual trypsin activity is reported as 75.2 ± 5.9%. The Residual trypsin activity (peptide 0.488 μM) turned out to be 3.0 ± 0.2%. Moreover, the Residual trypsin activity (peptide 0.98 μM) is listed as 0.7 ± 0.1%. In addition, under “read-out: inhibition constant (Ki) towards trypsin”, the Ki came to 0.03 µM.

Regarding `CC[C@H](C)[C@@H]1NC(=O)[C@H](CO)NC(=O)[C@H](CCCNC(=N)N)NC(=O)[C@H]([C@@H](C)O)NC(=O)[C@@H](NC(=O)[C@@H](N)CCCNC(=N)N)CSSC[C@@H](C(=O)N[C@@H](Cc2c[nH]c3ccccc23)C(=O)O)NC(=O)[C@H](Cc2c[nH]cn2)NC(=O)[C@@H]2CCCN2C(=O)[C@@H]2CCCN2C1=O` [BT61] (H-RCTRSIPPHCW-OH; disulfide 2-10; N-terminus and C-terminus assumed), under setting [1], the Ki stood at 0.19 µM.

For the molecule `CC[C@H](C)[C@@H]1NC(=O)[C@@H]2CCCN2C(=O)[C@@H]2CCCN2C(=O)[C@H]([C@@H](C)CC)NC(=O)[C@H](CO)NC(=O)[C@H](CCCCN)NC(=O)[C@H]([C@@H](C)O)NC(=O)[C@H](C)NC(=O)[C@H](CCCNC(=N)N)NC(=O)CNC(=O)[C@@H](N)CSSC[C@@H](C(=O)O)NC1=O` [BT8] (H-CGRATKSIPPIC-OH; disulfide 1-12 (inferred); N-terminus and C-terminus assumed), the IC50 is > 50 µM.

Turning to `CC[C@H](C)[C@@H]1NC(=O)[C@@H](N)CSSC[C@@H](C(=O)N[C@@H](Cc2ccccc2)C(=O)O)NC(=O)[C@H]([C@@H](C)CC)NC(=O)[C@@H]2CCCN2C(=O)[C@@H]2CCCN2C(=O)[C@H]([C@@H](C)CC)NC(=O)[C@H](CO)NC(=O)[C@H](CCCCN)NC(=O)[C@H]([C@@H](C)O)NC(=O)[C@H](C)NC(=O)[C@H](CCCNC(=N)N)NC1=O` [BT73] (H-CIRATKSIPPICF-OH; disulfide 1-12; N-terminus and C-terminus assumed), the IC50 is 0.12 µM. The inhibition constant (Ki) under setting [1] was 0.03 µM.

As to `CC[C@H](C)[C@@H]1NC(=O)[C@@H]2CCCN2C(=O)[C@@H]2CCCN2C(=O)[C@H]([C@@H](C)CC)NC(=O)[C@H](CO)NC(=O)[C@H](CCCCN)NC(=O)[C@H]([C@@H](C)O)NC(=O)[C@H](C)NC(=O)[C@H](CCCNC(=N)N)NC(=O)[C@H](CCC(N)=O)NC(=O)[C@@H](N)CSSC[C@@H](C(=O)N[C@@H](Cc2ccccc2)C(=O)O)NC1=O` [BT79] (H-CQRATKSIPPICF-OH; disulfide 1-12; N-terminus and C-terminus assumed), the “inhibitory activity” value is “excellent trypsin inhibitory activities” and the IC50 was determined as 0.05 µM. Also, the Ki under setting [1] is 0.01 µM.

`CC[C@H](C)[C@@H]1NC(=O)[C@@H]2CCCN2C(=O)[C@@H]2CCCN2C(=O)[C@H]([C@@H](C)CC)NC(=O)[C@H](CO)NC(=O)[C@H](CCCCN)NC(=O)[C@H]([C@@H](C)O)NC(=O)[C@H](C)NC(=O)[C@H](CCCNC(=N)N)NC(=O)CNC(=O)[C@@H](N)CSSC[C@@H](C(=O)O)NC(=O)[C@H](Cc2ccccc2)NC(=O)[C@H](C)NC1=O` [BT11] (H-CGRATKSIPPIAFC-OH; disulfide 1-14; N-terminus and C-terminus assumed): the “inhibitory activity” value is “still maintained good inhibitory activity against trypsin”. For the setting “peptide 0.488 μM”, the Residual trypsin activity worked out at 100.2 ± 3.7%. Moreover, the Residual trypsin activity (peptide 0.7317 μM) amounted to 102.4 ± 4.2%. In addition, the Residual trypsin activity (peptide 0.98 μM) was determined as 101.5 ± 5.1%. Where the note is “peptide 1.561 μM”, the Residual trypsin activity came to 79.3 ± 1.0%. The Residual trypsin activity (peptide 1.95 μM) was 75.8 ± 4.6%. In addition, the Residual trypsin activity (peptide 2.93 μM) worked out at 6.2 ± 3.1%. Besides, under “peptide 3.90 μM”, the Residual trypsin activity is 4.1 ± 1.0%. Under “peptide 4.88 μM”, the Residual trypsin activity is 1.4 ± 0.3%.

`CC[C@H](C)[C@@H]1NC(=O)[C@H](CO)NC(=O)[C@H](CCCCN)NC(=O)[C@H]([C@@H](C)O)NC(=O)[C@@H](NC(=O)[C@@H](N)CCCNC(=N)N)CSSC[C@@H](C(=O)N[C@@H](Cc2ccccc2)C(=O)O)NC(=O)[C@H](Cc2c[nH]cn2)NC(=O)[C@@H]2CCCN2C(=O)[C@@H]2CCCN2C1=O` [BT62] (H-RCTKSIPPHCF-OH; disulfide 2-10; N-terminus and C-terminus assumed): the IC50 was determined as 0.07 µM. Also, the Ki under setting [1] was determined as 0.01 µM.

Consider `CC[C@H](C)[C@@H]1NC(=O)[C@@H]2CCCN2C(=O)[C@@H]2CCCN2C(=O)[C@H]([C@@H](C)CC)NC(=O)[C@H](CO)NC(=O)[C@H](CCCCN)NC(=O)[C@H]([C@@H](C)O)NC(=O)[C@H](Cc2c[nH]cn2)NC(=O)[C@H](CCCNC(=N)N)NC(=O)CNC(=O)[C@@H](N)CSSC[C@@H](C(=O)N[C@@H](Cc2ccccc2)C(=O)O)NC1=O` [BT56] (H-CGRHTKSIPPICF-OH; disulfide 1-12; N-terminus and C-terminus assumed), for which the IC50 worked out at 0.11 µM. Further, the Ki under setting [1] is 0.02 µM.

On to `CC[C@H](C)[C@@H]1NC(=O)[C@H](CO)NC(=O)[C@H](CCCCN)NC(=O)[C@H]([C@@H](C)O)NC(=O)[C@H](C)NC(=O)[C@H](CCCNC(=N)N)NC(=O)CNC(=O)[C@@H](N)CSSC[C@@H](C(=O)O)NC(=O)[C@H](CCCNC(=N)N)NC(=O)[C@H](C)NC(=O)[C@H](CCC(N)=O)NC(=O)[C@@H]2CCCN2C(=O)[C@@H]2CCCN2C1=O` [BT34] (H-CGRATKSIPPQARC-OH; disulfide 1-14), for which the IC50 was > 50 µM.

Regarding `CC[C@H](C)[C@@H]1NC(=O)[C@H](CO)NC(=O)[C@H](CCCCN)NC(=O)[C@H]([C@@H](C)O)NC(=O)[C@@H](NC(=O)[C@@H](N)CCCNC(=N)N)CSSC[C@@H](C(=O)N[C@@H](Cc2c[nH]cn2)C(=O)O)NC(=O)[C@H](CCC(N)=O)NC(=O)[C@@H]2CCCN2C(=O)[C@@H]2CCCN2C1=O` [BT63] (H-RCTKSIPPQCH-OH; disulfide 2-10; N-terminus and C-terminus assumed), the IC50 came out at 0.09 µM. The inhibition constant (Ki) under setting [1] was determined as 0.02 µM.

As to `CCCC[C@@H]1NC(=O)[C@H](CCCNC(=N)N)NC(=O)CNC(=O)[C@@H](N)CSSC[C@@H](C(=O)N[C@@H](Cc2ccccc2)C(=O)O)NC(=O)[C@H]([C@@H](C)CC)NC(=O)[C@@H]2CCCN2C(=O)[C@@H]2CCCN2C(=O)[C@H]([C@@H](C)CC)NC(=O)[C@H](CO)NC(=O)[C@H](CCCCN)NC(=O)[C@H]([C@@H](C)O)NC1=O` [BT50] (H-CGR[Nle]TKSIPPICF-OH; disulfide 1-12; C-terminus assumed), the “inhibitory activity” value is recorded as “good inhibitory activities against trypsin” and the half-inhibitory concentration (IC50) is 0.07 µM. Under setting [1], the Ki was determined as 0.01 µM. For the same molecule, the “inhibitory activity” value (listed as SEQ ID NO: 50) is “excellent trypsin inhibitory activities”. Moreover, where the note is “peptide 0.000098 μM”, the Residual trypsin activity is recorded as 106.1 ± 2.6%. In addition, the Residual trypsin activity (peptide 0.00098 μM) was found to be 108.5 ± 1.0%. The Residual trypsin activity (peptide 0.0098 μM) was determined as 105.0 ± 3.9%. Moreover, the Residual trypsin activity (peptide 0.0488 μM) was found to be 73.5 ± 1.6%. Moreover, where the note is “peptide 0.0780 μM”, the Residual trypsin activity was 48.9 ± 1.8%. Also, the Residual trypsin activity (peptide 0.098 μM) worked out at 22.6 ± 5.7%. Also, the Residual trypsin activity (peptide 0.98 μM) is on record as 0.1 ± 0.0%. Moreover, the Residual trypsin activity (peptide 9.76 μM) came out at 0.0 ± 0.1%. For the setting “peptide 97.56 μM”, the Residual trypsin activity was found to be 0.0 ± 0.1%.

For `CC[C@H](C)[C@@H]1NC(=O)[C@@H]2CCCN2C(=O)[C@@H]2CCCN2C(=O)[C@H]([C@@H](C)CC)NC(=O)[C@H](CO)NC(=O)[C@H](CCCCN)NC(=O)[C@H]([C@@H](C)O)NC(=O)[C@H](C)NC(=O)[C@H](CCCNC(=N)N)NC(=O)CNC(=O)[C@@H](N)CCSSCC[C@@H](C(=O)O)NC(=O)[C@H](Cc2ccccc2)NC(=O)[C@H](C)NC1=O` [BT29] (H-[hCys]GRATKSIPPIAF[hCys]-OH; disulfide 1-14; N-terminus assumed), the “inhibitory activity” value is on record as “still maintained good inhibitory activity against trypsin”.
